{"source": "patent US8648113B2", "about": "“Mixture and compounds from mycelia of Antrodia camphorata and use thereof” (Simpson Biotech Co., Ltd., priority 2004, dated 2014)", "key": {"[1]": {"tested_on": "LLC (Lewis lung carcinoma) cell line"}, "[2]": {"tested_on": "LLC (Lewis lung carcinoma) cell line", "test": "Cytotoxic assay, in vitro LLC tumor cell assay (SRB method)", "conditions": "for 50% Growth Inhibition (ED50): SRB method"}, "[3]": {"tested_on": "HepG2: human liver carcinoma", "test": "Tumor assay of ACM, MTT method, HepG2", "assay_type": "cell-based", "conditions": "3 days", "excerpt": "(§1) Tumor Assay of ACM (Antrodia camphorata Mycelia Powder) A. Cell Line • Adherent Cell • MCF-7: human breast carcinoma • HT-29: human colon adenocarcinoma • KATO III: human stomach carcinoma • SW480: human colon adenocarcinoma • SW620: human colon adenocarcinoma • HepG2: human liver carcinoma • Suspension Cell • EL4: mice lymphoma B. Samples • Compound 1, Compound 3, ACM EtOH Extract, ACM H2O Extract C. Assay Method • Calculate ED50 (50% inhibition of effective dose) • Adherent cell: MTT (methyl thiazolyl tetrazolium) method for MCF-7, HT-29, KATO III, SW480, HepG2, cells are determined at 3 days. SW620 at 4 days • Suspension cell: Cell count method; EL4 cells count at 5 days D. Result Calculation: y=m Ln(x)+b\n(§2) Use value of X (10, 30, 50 ppm) and Y to get correlation curve y=−0.2643 Ln(x)+1.5321 ED50=exp[0.97/2−1.5321/(−0.2643)] Sample Preparation and Sample Description A. ACM (Antrodia Camphorata Mycelia Powder) H2O Extract 1. Add 1 g of ACM into 40 ml of RO H2O in a 250 ml beaker, put the beaker in ultrasonic water bath for 20 min at room temperature 2. Stir at 45° C. water bath for 45 min 3. Place the beaker in ultrasonic water bath for another 20 min 4. Centrifuge the sample at 3000 rpm for 15 min 5. Collect supernatant and perform serial dilutions with media B. Determination of Sample Concentration 1. […] Read at OD545 on Elisa reader Cell Count Method (EL4 Cell Line) 1. […]"}, "[4]": {"tested_on": "HT-29: human colon adenocarcinoma", "test": "Tumor assay of ACM, MTT method, HT-29", "assay_type": "cell-based", "conditions": "3 days", "excerpt": "as §1, §2"}, "[5]": {"tested_on": "KATO III: human stomach carcinoma", "test": "Tumor assay of ACM, MTT method, KATO III", "assay_type": "cell-based", "conditions": "3 days", "excerpt": "as §1, §2"}, "[6]": {"tested_on": "EL4: mice lymphoma", "test": "Tumor assay of ACM, cell count method, EL4", "assay_type": "cell-based", "conditions": "5 days", "excerpt": "as §1, §2"}, "[7]": {"tested_on": "SW620: human colon adenocarcinoma", "test": "Tumor assay of ACM, MTT method, SW620", "assay_type": "cell-based", "conditions": "4 days", "excerpt": "as §1, §2"}, "[8]": {"tested_on": "MCF-7: human breast carcinoma", "test": "Tumor assay of ACM, MTT method, MCF-7", "assay_type": "cell-based", "conditions": "3 days", "excerpt": "as §1, §2"}, "[9]": {"tested_on": "spontaneously hypertensive rats (SHR)", "conditions": "0.1 mg/kg PO, Ave. of 3 rats (Tables 7 and 9: two experiments)", "protocol": "Blood pressure and heart rate were recorded indirectly by tail cuff method in a temperature controlled environment (32±1° C.) before (0 time) and 1, 2 and 4 hours after oral administration of test substance or vehicle. A reduction in systolic pressure by 10 percent or more (>10%), or decrease in heart rate by 20 percent or more (≧20%), at each measured time interval relative to 0 time, is considered significant.\nBlood pressure was recorded indirectly vial tail cuff at 0 time (before) and 1, 2 and 4 hours after oral administration of vehicle or test substance. A reduction in blood pressure by 10 percent or more (10%), or decrease in heart rate by 20 percent or more (≧20%) at each measurement time point relative to 0 time, shown in parenthesis, is considered significant."}, "[10]": {"tested_on": "SW480: human colon adenocarcinoma", "test": "Tumor assay of ACM, MTT method, SW480", "assay_type": "cell-based", "conditions": "3 days", "excerpt": "as §1, §2"}, "[11]": {"tested_on": "ICR derived male mice, carbon tetrachloride induced hepatic injury", "test": "Hepatic Injury, Carbon Tetrachloride, in Mice", "assay_type": "in vivo, mouse", "conditions": "for ALT, group mean (X) / AST, group mean (X) / ALT, individual animal / AST, individual animal: CCl4-challenged ICR mice; for ALT, group mean (X) / AST, group mean (X): mean of 5; for ALT, individual animal / AST, individual animal: single animals N 1-5, 24 h after CCl4; for ALT Dec. % / AST Dec. %: decrease relative to vehicle group, brackets = 30% or greater", "description": "Nine groups of ICR derived male mice (weighing 22±2 g) of 5 each were used. Each animals was challenged with a single dose of carbon tetrachloride (CCl4, 0.1 ml/kg in 50% olive oil, PO). […] The animals were sacrificed 24 hours after CCl4. Alanine aminotransferase (ALT) and Aspartate aminotransferase (AST) levels were measured by optimized UV method using a HITACHI automatic analyzer (model 7050). A reduction of ALT or AST levels by 30 percent or greater (30%), relative to the vehicle group, indicating significant protection from hepatic injury.\nThe test substance of ACM at doses 300 and 1000 mg/kg and compound 3 of the invention at doses 30, 100 and 300 mg/kg were administered orally to test animals 0.5 hour before and 4, 8 hours after CCl4 challenge. […] The degree of hepatic injury was determined by increase in serum alanine aminotransferase (ALT) and aspartate aminotransferase (AST) levels relative to the vehicle treated animals. ACM at 1000 mg/kg×3 and compound 3 of the invention at 300 mg/kg×3 caused a significant reduction of ALT (46% and 41%) and AST (36% and 33%) relative to the vehicle treated animals."}, "[12]": {"tested_on": "Wistar derived male rats, D-galactosamine induced hepatic injury", "test": "Hepatic Injury, D-Galactosamine in rats", "assay_type": "in vivo, rat", "conditions": "300 mg/kg × 3 PO (Guanine, reference)", "description": "Groups of 5 Wistar derived male rats weighing 200±20 g were used. Each animal was treated with a single injection of D-galactosamine (500 mg/kg, IP) Test substance was administered orally at 0.5 hour before and 4 hours as well as 8 hours after D-galactosamine administration and animals were sacrificed 24 hours later. […] Reduction in ALT or AST activity by 30 percent or more (30%), relative to the vehicle treated control animal indicates significant protection.\nTest substance and vehicle were administered orally at 0.5 hour before and 4, 8 hours after a single dose of galactosamine (500 mg/kg, IP). The rats were sacrificed 24 hours after galactosamine injection and the ALT and AST values were determined A reduction of 30% in the ALT and AST relative to the vehicle group is considered significant. • 3. Winter et al., Inflammation, Carrageenan, Proc. Soc."}}, "note": "Values joined by “and” are separate entries in the source; they are usually repeats but may differ in a detail not shown here. Equal values may be shown once. Read-outs that look alike come from different tables or passages of the source.", "data": [{"smiles": "CC(C)=CCOc1ccc([C@H]2C(=O)N(O)C(=O)[C@@H]2CC(C)C)cc1", "note": "(relative stereo) [Compound 4, 3R*,4S*-1-Hydroxy-3-isobutyl-4-[4-(3-methyl-2-butenyloxy)phenyl]pyrrolidine-2,5-dione]", "values": [{"measurement": "cytotoxic activity (in words)", "setting": "[1]", "result": "no cytotoxic activity"}, {"measurement": "50% Growth Inhibition (ED50)", "setting": "[2]", "result": ">10", "unit": "µg/mL"}]}, {"smiles": "CC(C)=CCOc1ccc(C2=C(CC(C)C)C(=O)OC2=O)cc1", "note": "[Compound 1, 3-Isobutyl-4-[4-(3-methyl-2-butenyloxy)phenyl]furan-2,5-dione]", "values": [{"measurement": "ED50", "setting": "[3]", "result": 21, "unit": "ppm"}, {"measurement": "ED50", "setting": "[4]", "result": 52, "unit": "ppm"}, {"measurement": "ED50", "setting": "[5]", "result": 38, "unit": "ppm"}, {"measurement": "ED50", "setting": "[6]", "result": 3.5, "unit": "ppm"}, {"measurement": "ED50", "setting": "[7]", "result": 15, "unit": "ppm"}, {"measurement": "ED50", "setting": "[8]", "result": 6, "unit": "ppm"}, {"measurement": "cytotoxic activity (in words)", "setting": "[2]", "result": "no cytotoxic activity"}, {"measurement": "50% Growth Inhibition (ED50)", "setting": "[2]", "result": ">20", "unit": "µg/mL"}]}, {"smiles": "Clc1cccc(Cl)c1N=C1NCCN1", "note": "[Clonidine]", "values": [{"measurement": "Heart Rate % Control (from 0 times), 2 Hours", "setting": "[9]", "result": "90% and 86%"}, {"measurement": "Heart Rate % Control (from 0 times), 4 Hours", "setting": "[9]", "result": "98% and 102%"}]}, {"smiles": "CC(C)=CCOc1ccc(C2=C(CC(C)C)C(=O)N(O)C2=O)cc1", "note": "[Compound 3, 3-Isobutyl-4-[4-(3-methyl-2-butenyloxy)phenyl]-1H-pyrrol-1-ol-2,5-dione]", "values": [{"measurement": "ED50", "setting": "[3]", "result": 35, "unit": "ppm"}, {"measurement": "ED50", "setting": "[4]", "result": 42, "unit": "ppm"}, {"measurement": "ED50", "setting": "[5]", "result": 69, "unit": "ppm"}, {"measurement": "ED50", "setting": "[6]", "result": 2.6, "unit": "ppm"}, {"measurement": "ED50", "setting": "[10]", "result": 20, "unit": "ppm"}, {"measurement": "ED50", "setting": "[7]", "result": 27, "unit": "ppm"}, {"measurement": "ED50", "setting": "[8]", "result": 0.02, "unit": "ppm"}, {"measurement": "reduction of ALT relative to the vehicle treated animals", "setting": "[11]; CCl4 mice, 300 mg/kg×3 PO", "result": 41, "unit": "%"}, {"measurement": "reduction of AST relative to the vehicle treated animals", "setting": "[11]; CCl4 mice, 300 mg/kg×3 PO", "result": 33, "unit": "%"}, {"measurement": "ALT, group mean (X)", "setting": "[11]; PO 30 mg/kg × 3", "result": 3360, "unit": "U/L"}, {"measurement": "AST, group mean (X)", "setting": "[11]; PO 30 mg/kg × 3", "result": 1962, "unit": "U/L"}, {"measurement": "ALT, individual animal", "setting": "[11]; PO 30 mg/kg × 3", "result": "4296 U/L and 3696 U/L and 2152 U/L and 2400 U/L and 4256 U/L"}, {"measurement": "AST, individual animal", "setting": "[11]; PO 30 mg/kg × 3", "result": "2136 U/L and 2288 U/L and 1096 U/L and 1792 U/L and 2496 U/L"}, {"measurement": "ALT Dec. %", "setting": "[11]; PO 30 mg/kg × 3", "result": "−1", "unit": "%"}, {"measurement": "AST Dec. %", "setting": "[11]; PO 30 mg/kg × 3", "result": "−16", "unit": "%"}, {"measurement": "ALT, group mean (X)", "setting": "[11]; PO 100 mg/kg × 3", "result": 3342, "unit": "U/L"}, {"measurement": "AST, group mean (X)", "setting": "[11]; PO 100 mg/kg × 3", "result": 1984, "unit": "U/L"}, {"measurement": "ALT, individual animal", "setting": "[11]; PO 100 mg/kg × 3", "result": "3200 U/L and 4576 U/L and 2512 U/L and 2728 U/L and 3696 U/L"}, {"measurement": "AST, individual animal", "setting": "[11]; PO 100 mg/kg × 3", "result": "2256 U/L and 2976 U/L and 1536 U/L and 1552 U/L and 1600 U/L"}, {"measurement": "ALT Dec. %", "setting": "[11]; PO 100 mg/kg × 3", "result": 0, "unit": "%"}, {"measurement": "AST Dec. %", "setting": "[11]; PO 100 mg/kg × 3", "result": "−17", "unit": "%"}, {"measurement": "ALT, group mean (X)", "setting": "[11]; PO 300 mg/kg × 3", "result": 1966, "unit": "U/L"}, {"measurement": "AST, group mean (X)", "setting": "[11]; PO 300 mg/kg × 3", "result": 1130, "unit": "U/L"}, {"measurement": "ALT, individual animal", "setting": "[11]; PO 300 mg/kg × 3", "result": "1368 U/L and 1576 U/L and 1440 U/L and 2728 U/L and 2720 U/L"}, {"measurement": "AST, individual animal", "setting": "[11]; PO 300 mg/kg × 3", "result": "776 U/L and 896 U/L (2×) and 1352 U/L and 1728 U/L"}, {"measurement": "ALT Dec. %", "setting": "[11]; PO 300 mg/kg × 3", "result": "(41) %"}, {"measurement": "AST Dec. %", "setting": "[11]; PO 300 mg/kg × 3", "result": "(33) %"}, {"measurement": "cytotoxic activity (in words)", "setting": "[2]", "result": "cytotoxic"}, {"measurement": "50% Growth Inhibition (ED50)", "setting": "[2]", "result": 7.5, "unit": "µg/mL"}]}, {"smiles": "Nc1nc2nc[nH]c2c(=O)[nH]1", "note": "[Guanine]", "values": [{"measurement": "Serum ALT", "setting": "[12]; individual rats, 300 mg/kg", "result": "508 U/L and 532 U/L and 412 U/L and 436 U/L and 636 U/L"}, {"measurement": "Serum AST", "setting": "[12]; individual rats, 300 mg/kg", "result": "656 U/L and 912 U/L and 776 U/L and 652 U/L and 1028 U/L"}, {"measurement": "Serum ALT Dec. %", "setting": "[12]; relative to vehicle", "result": "(34) %"}, {"measurement": "Serum AST Dec. %", "setting": "[12]; relative to vehicle", "result": "(33) %"}]}]}
